Reference: patent publication US5376643A, “Composition for application to hair” (priority 1986, dated 1994)
Like-named read-outs stand apart in the source and are kept apart here.

Experiments:
grayed hair [1] = experiment: Half-Head technique: preventing graying of the hair and restoring grayed hair to its natural color (Example 1 procedure); assay type: in vivo, human (men and women); conditions: for effect of preventing graying and restoring grayed hair, compared with Example 2 / amount of grayed hair / effect of preventing graying of the hair and restoring grayed hair to its natural color / effect on graying, compared with Example 12 / effect of preventing graying and restoring grayed hair: in words; for effect of preventing graying and restoring grayed hair, compared with Example 2: hair cream, used instead of N^6,O^2'-DScAMP-Na; for Comp. Sample is better / Comp. Sample is somewhat better / Same / This Invention is better / This Invention is somewhat better: 3 months; for amount of grayed hair / effect of preventing graying of the hair and restoring grayed hair to its natural color: compared with comparative sample free from the component; for effect on graying, compared with Example 12: hair tonics, used in place of FAD-2Na; for effect of preventing graying and restoring grayed hair: hair tonic
Text: The effectiveness of the hair tonics thus prepared were estimated in the following manner: Twenty statistically equivalent persons (comprising men and women aged 30 to 60 years) were selected and Samples of the hair tonics were applied to their scalps in accordance with the Half-Head technique, in which Samples were separately applied to the right and left half portions of the scalp, twice a day (in the morning and at night) for three months. The effects of preventing graying of the hair and restoring grayed hair to its natural color were estimated by comparing the conditions of the portions observed before and after the application of Samples.

[2] = Safety examination (overall, in words); conditions: same procedures as in Example 1
scalp [3] = experiment: Condition of the scalp during and after use for 3 months
Text: (§1) Twenty statistically equivalent persons (comprising men and women aged 30 to 60 years) were selected and Samples of the hair tonics were applied to their scalps in accordance with the Half-Head technique, in which Samples were separately applied to the right and left half portions of the scalp, twice a day (in the morning and at night) for three months. The effects of preventing graying of the hair and restoring grayed hair to its natural color were estimated by comparing the conditions of the portions observed before and after the application of Samples.

grayed hair [4] = experiment: Half-Head technique, two groups of 20 persons: preventing graying of the hair and restoring grayed hair (Example 6 procedure); assay type: in vivo, human (men and women); conditions: in words; hair creams
Text: Two groups each of which comprised 20 persons (50 to 60 years old; comprising men and women) were selected and the hair tonic Samples (S-I and S-II) were separately applied to scalp of each person of one group in accordance with Half-Head technique wherein the hair tonics I and II were separately applied to the right half of the scalp and the left half thereof, on the other hand Samples (S-II and S-III) were likewise separately applied to each person of the other group in the same manner twice a day (in the morning and at night) for 3 months.

[5] = in words; cited from earlier work
[6] = in words; cited from earlier work; remark: listed apart in the source
rabbit = conditions: in vivo
scalp [7] = conditions: in vivo
Text: as §1

guinea pig [8] = experiment: Phototoxicity (guinea pig); assay type: in vivo
[9] = in vivo
human = conditions: in vivo
guinea pig [10] = experiment: Photosensitization (guinea pig); assay type: in vivo
guinea pig [11] = experiment: Skin Sensitization (guinea pig); assay type: in vivo
guinea pig [12] = conditions: in vivo
[13] = Acute Oral Toxicity (rat); conditions: in vivo
[14] = Table X, hair cream with 0.8% vs cream without
[15] = Table XXV, hair tonic with 0.1% vs tonic without
[16] = Table VIII, milky lotion with 0.2% vs lotion without
[17] = Table III, of 20 persons, hair tonic with 0.05% vs tonic without, twice a day

SMILES: CCCC(=O)O[C@@H]1[C@@H]2OP(=O)(O)OC[C@H]2O[C@H]1n1c(Br)nc2c(N)ncnc21 [O^2'-MB-8BrcAMP-Na]
- effect of preventing graying and restoring grayed hair, compared with Example 2 (grayed hair [1]): Substantially the same excellent effect as in Example 2

SMILES: CCCC(=O)Nc1ncnc2c1ncn2[C@@H]1O[C@@H]2COP(=O)(O)O[C@H]2[C@H]1O [N^6-MBcAMP-Na]
- safety [2]: had no problems such as skin irritation and thus had extremely high safety
- Comp. Sample is better (grayed hair [1]; [14]): 0
- Comp. Sample is somewhat better (grayed hair [1]; [14]): 0
- Same (grayed hair [1]; [14]): 4
- This Invention is better (grayed hair [1]; [14]): 9
- This Invention is somewhat better (grayed hair [1]; [14]): 7
- amount of grayed hair (grayed hair [1]): the amount of grayed hair was reduced
- effect of preventing graying of the hair and restoring grayed hair to its natural color (grayed hair [1]): excellent effect
- abnormality in the condition of the scalp (scalp [3]): no abnormality was observed

SMILES: CCCCCC(=O)Nc1ncnc2c1ncn2C1OC2COP(=O)([O-])OC2C1O.[Na+] (stereo not drawn) [N^6-MHcAMP-Na]
- effect on graying, compared with Example 12 (grayed hair [1]): substantially the same effect as in Example 12

SMILES: CCCCCCCCCCCOCC(COCCCCCCCCCCC)OCCCCCCCCCCC [triundecyl glycerylether]
- effect on graying, compared with Example 7 (grayed hair [4]): approximately the same results as in Example 7

SMILES: Cc1cc2nc3c(=O)[nH]c(=O)nc-3n(C[C@H](O)[C@H](O)[C@H](O)COP(=O)(O)OP(=O)(O)OC[C@H]3O[C@@H](n4cnc5c(N)ncnc54)[C@H](O)[C@@H]3O)c2cc1C [FAD, flavin adenine dinucleotide]
- effect on graying, compared with Example 7 (grayed hair [4]): approximately the same results as those in Example 7

SMILES: Cc1cc2nc3c(=O)[nH]c(=O)nc-3n(C[C@H](O)[C@H](O)[C@H](O)COP(=O)(O)OP(=O)(O)OC[C@H]3O[C@@H](n4cnc5c(N)ncnc54)[C@H](O)[C@@H]3O)c2cc1C [FAD-2Na]
- safety [2]: had no problems such as skin irritation and thus had extremely high safety
- Comp. Sample is better (grayed hair [1]; [15]): 0
- Comp. Sample is somewhat better (grayed hair [1]; [15]): 0
- Same (grayed hair [1]; [15]): 4
- This Invention is better (grayed hair [1]; [15]): 8
- This Invention is somewhat better (grayed hair [1]; [15]): 8

SMILES: Nc1ncnc2c1nc(Br)n2[C@@H]1O[C@@H]2COP(=O)(O)O[C@H]2[C@H]1O [8-BrcAMP-Na]
- effect of preventing graying and restoring grayed hair, compared with Example 2 (grayed hair [1]): Substantially the same excellent effect as in Example 2

SMILES: CCCCCCCCC(=O)O [nonanoic acid]
- effect on graying, compared with Example 7 (grayed hair [4]): approximately the same results as in Example 7

SMILES: Nc1ncnc2c1nc(O)n2[C@@H]1O[C@@H]2COP(=O)(O)O[C@H]2[C@H]1O [8-OHcAMP-Na]
- effect of preventing graying and restoring grayed hair, compared with Example 2 (grayed hair [1]): Substantially the same excellent effect as in Example 2

SMILES: Nc1ncnc2c1nc(S)n2[C@@H]1O[C@@H]2COP(=O)(O)O[C@H]2[C@H]1O [8-SHcAMP-Na]
- effect of preventing graying and restoring grayed hair, compared with Example 2 (grayed hair [1]): Substantially the same excellent effect as in Example 2

SMILES: CCCCCCCC(=O)OC1C2OP(=O)([O-])OCC2OC1n1cnc2c(N)ncnc21.[Na+] (stereo not drawn) [O^2'-MOcAMP-Na]
- effect on graying, compared with Example 12 (grayed hair [1]): substantially the same effect as in Example 12

SMILES: Nc1ncnc2c1nc(Cl)n2[C@@H]1O[C@@H]2COP(=O)(O)O[C@H]2[C@H]1O [8-ClcAMP-Na]
- effect of preventing graying and restoring grayed hair, compared with Example 2 (grayed hair [1]): Substantially the same excellent effect as in Example 2

SMILES: Nc1ncnc2c1ncn2[C@@H]1O[C@@H]2COP(=O)([O-])O[C@H]2[C@H]1OC(=O)CCC(=O)O.[Na+] [O^2'-MScAMP-Na]
- safety [2]: had no problems such as skin irritation and thus had extremely high safety
- Comp. Sample is better (grayed hair [1]; [16]): 0
- Comp. Sample is somewhat better (grayed hair [1]; [16]): 0
- Same (grayed hair [1]; [16]): 3
- This Invention is better (grayed hair [1]; [16]): 10
- This Invention is somewhat better (grayed hair [1]; [16]): 7
- amount of grayed hair (grayed hair [1]): the amount of grayed hair was reduced
- effect of preventing graying of the hair and restoring grayed hair to its natural color (grayed hair [1]): excellent effect
- abnormality in the condition of the scalp (scalp [3]): no abnormality was observed

SMILES: CC(=O)Nc1ncnc2c1nc(N)n2C1OC2COP(=O)([O-])OC2C1OC(C)=O.[Na+] (stereo not drawn) [N^6,O^2'-DA-8-NH2 cAMP-Na]
- effect of preventing graying and restoring grayed hair, compared with Example 2 (grayed hair [1]): Substantially the same excellent effect as in Example 2

SMILES: C=C1CC[C@H](O)C/C1=C/C=C1\CCC[C@]2(C)[C@@H]([C@H](C)CCCC(C)C)CC[C@@H]12 [vitamin D3]
- side-effects [5]: tend to cause side-effectssuch as hypervitaminosis D or hypercalcemia
- stability in the air [6]: extremely unstable in the air and easily undergo oxidation

SMILES: Nc1ncnc2c1nc(Sc1ccc(Cl)cc1)n2[C@@H]1O[C@@H]2COP(=O)(O)O[C@H]2[C@H]1O [8-C1PhScAMP-Na]
- effect of preventing graying and restoring grayed hair, compared with Example 2 (grayed hair [1]): Substantially the same excellent effect as in Example 2

SMILES: CCCC(=O)O[C@@H]1[C@@H]2OP(=O)(O)OC[C@H]2O[C@H]1n1cnc2c(N)ncnc21 [O^2 -MBcAMP-Na]
- effect on graying, compared with Example 7 (grayed hair [4]): approximately the same results as those in Example 7

SMILES: CCCC(=O)Nc1ncnc2c1ncn2[C@@H]1O[C@@H]2COP(=O)(O)O[C@H]2[C@H]1OC(=O)CCC [N^6,O^2'-DBcAMP-Na]
- Ocular-mucous Membrane Irritation (rabbit): non-irritant
- abnormality in the condition of the scalp (scalp [7]): No abnormality was observed
- Phototoxicity (guinea pig [8]): negative
- Comp. Sample is better (grayed hair [1]; [17]): 0
- Comp. Sample is somewhat better (grayed hair [1]; [17]): 0
- Same (grayed hair [1]; [17]): 2
- This Invention is better (grayed hair [1]; [17]): 11
- This Invention is somewhat better (grayed hair [1]; [17]): 7
- amount of grayed hair (grayed hair [1]): reduced the amount of grayed hair more effectively than the comparative hair tonic
- effect of preventing graying of the hair and restoring grayed hair to its natural color (grayed hair [1]): remarkable effect
- effect of preventing graying and restoring grayed hair (grayed hair [1]; amount of 0.005%): little effect
- effect of preventing graying and restoring grayed hair (grayed hair [1]; amount of 0.01): effective
- safety [9]: extremely high
- Human Patch Test (human): non-irritant
- Photosensitization (guinea pig [10]): negative
- Skin Sensitization (guinea pig [11]): negative
- Primary Skin Irritation (guinea pig [12]): non-irritant
- LD50 [13]: ≥ 5000 mg/kg
